Source: patent US20230233576A1, “ECLITASERTIB FOR USE IN TREATING CONDITIONS INVOLVING SYSTEMIC HYPERINFLAMMATORY RESPONSE” (priority 2020, published 2023)

Tested on: adult participants hospitalized for severe COVID-19
Assay: Phase 1b severe COVID-19 study: adverse events and deaths
Format: in vivo, human
Text: Safety evaluation was based on adverse events (Aes) including serious adverse events (SAEs) and adverse events of special interest (AESIs) (i.e., pregnancy, symptomatic overdose with IMP. Alanine aminotransferase [ALT] increase, and anemia), and treatment-emergent adverse events (TEAEs) leading to treatment discontinuation.
The primary focus of AE reporting was on treatment emergent adverse events (TEAEs). Treatment emergent adverse events were Aes that were not present at baseline or represented the exacerbation of a pre-existing condition during the on-treatment period (treatment-emergent period), defined as the time from the first administration of the IMP up to and including the day of last dose of study drug plus 5 days.
All adverse events were coded to a “preferred term (PT)”, “high-level term (HLT)”, “high-level group term (HLGT)”, and associated primary SOC using Medical Dictionary for Regulatory Activities (MedDRA) version 23.1.
The number and cumulative incidence rate of deaths [%] during the on-study period were computed by treatment group: number of deaths divided by the number of participants. Kaplan-Meier plot for time to death was presented by treatment group.

[1] = 600 mg (N = 47), Safety population
[2] = 600 mg (N = 47), Safety population, corresponds to worsening of COVID-19
[3] = 600 mg, Safety population (N = 47)
[4] = 600 mg, Study day 0, Safety population
[5] = 600 mg, Study day 13, Safety population
[6] = 600 mg, Study day 15, Safety population
[7] = 600 mg, Study day 27, Safety population
[8] = 600 mg, Study day 28, Safety population
[9] = 600 mg, Study day 29, Safety population
[10] = 600 mg, Study day 30, Safety population
[11] = 600 mg, Study day 31, Safety population
[12] = 600 mg, Study day 33, Safety population
[13] = 600 mg, Study day 42, Safety population
[14] = 600 mg, Study day 60, Safety population
[15] = post-treatment period, 600 mg (N = 47), safety population
[16] = pre-treatment emergent adverse events, 600 mg group (N = 47), safety population

CN1C(=O)[C@@H](NC(=O)c2nnc(Cc3ccccc3)[nH]2)COc2cccnc21 [RIPK1 Inhibitor, (S)-5-benzyl-N-(5-methyl-4-oxo-2,3,4,5-tetrahydropyrido[3,2-b][1,4]oxazepin-3-yl)-4H-1,2,4-triazole-3-carboxamide]
0.02: Cumulative incidence rate of deaths [5]
(6.4) %: TEAE, SOC METABOLISM AND NUTRITION DISORDERS: percentage of participants [1] | TEAE, SOC VASCULAR DISORDERS: percentage of participants [1]
2 TEAEs: number of TEAEs considered as IMP-related by the Investigator [3]
2 (4.3) n (%): Participants with any pre-treatment AE [16]
4.3%: deaths up to Day 28 [3]
0 n: participants with AESI, PT Anaemia [3] | participants with AESI, PT Transaminases increased [3] | participants with AESI, SOC BLOOD AND LYMPHATIC SYSTEM DISORDERS [3]
generally safe and well tolerated: overall safety and tolerability as compared to placebo (daily doses over 15 days, severe COVID-19, with standard of care)
4: TEAE, SOC INFECTIONS AND INFESTATIONS: number of participants [1] | TEAE, SOC RESPIRATORY, THORACIC AND M[…]: number of participants [1] | TEAE, PT Condition aggravated: number of participants [2]
2 participants: deaths up to Day 28 (600 mg, Safety population (N = 47), on Day 11 and Day 15)
6: TEAE, SOC GASTROINTESTINAL DISORDERS: number of participants [1] | TEAE, SOC GENERAL DISORDERS AND ADMINISTRATION SITE CONDITIONS: number of participants [1] | TEAE, SOC INVESTIGATIONS: number of participants [1]
6 (12.8) n (%): Participants with any post-treatment AE [15]
0 n (%): Participants with any post-treatment related to the compound [15] | Participants with any pre-treatment AE leading to death [16]
(12.8) %: TEAE, SOC GASTROINTESTINAL DISORDERS: percentage of participants [1] | TEAE, SOC GENERAL DISORDERS AND ADMINISTRATION SITE CONDITIONS: percentage of participants [1] | TEAE, SOC INVESTIGATIONS: percentage of participants [1]
(8.5) %: TEAE, SOC INFECTIONS AND INFESTATIONS: percentage of participants [1] | TEAE, SOC RESPIRATORY, THORACIC AND M[…]: percentage of participants [1] | TEAE, PT Condition aggravated: percentage of participants [2]
1: TEAE, PT Pyrexia: number of participants [1] | TEAE, PT Respiratory disorder: number of participants [1] | TEAE, PT Venous thrombosis limb: number of participants [1] | TEAE, PT Vessel puncture site phlebitis: number of participants [1] | TEAE, SOC BLOOD AND LYMPHATIC SYSTEM DISORDERS: number of participants [1] | TEAE, SOC IMMUNE SYSTEM DISORDERS: number of participants [1] | TEAE, SOC INJURY, POISONING AND PROCEDURAL COMPLICATIONS: number of participants [1] | TEAE, SOC MUSCULOSKELETAL AND CONNECTIVE TISSUE DISORDERS: number of participants [1] | TEAE, SOC PSYCHIATRIC DISORDERS: number of participants [1] | Number of deaths [5] | Number of deaths [6]
3: TEAE, SOC METABOLISM AND NUTRITION DISORDERS: number of participants [1] | TEAE, SOC VASCULAR DISORDERS: number of participants [1]
1 (2.1) n (%): Participants with any post-treatment AE leading to death [15] | Participants with any post-treatment SAE [15] | Participants with severe post-treatment AE [15] | Participants with any pre-treatment SAE [16] | Participants with severe pre-treatment AE [16]
8 serious TEAEs: number of serious TEAEs [3]
0: TEAE, PT Renal cyst: number of participants [1] | TEAE, PT Renal impairment: number of participants [1] | TEAE, PT Respiratory failure: number of participants [1] | TEAE, PT Subcutaneous emphysema: number of participants [1] | TEAE, PT Tachycardia paroxysmal: number of participants [1] | TEAE, PT Tracheitis: number of participants [1] | TEAE, PT Tracheobronchitis: number of participants [1] | TEAE, PT Transaminases increased: number of participants [1] | TEAE, PT Vomiting: number of participants [1] | TEAE, SOC CARDIAC DISORDERS: number of participants [1] | TEAE, SOC HEPATOBILIARY DISORDERS: number of participants [1] | TEAE, SOC NERVOUS SYSTEM DISORDERS: number of participants [1] | TEAE, SOC RENAL AND URINARY DISORDERS: number of participants [1] | TEAE, SOC REPRODUCTIVE SYSTEM AND BREAST DISORDERS: number of participants [1] | TEAE, SOC SKIN AND SUBCUTANEOUS TISSUE DISORDERS: number of participants [1] | Cumulative incidence rate of deaths [4] | Number of deaths [4] | Number of deaths [7] | Number of deaths [8] | Number of deaths [9] | Number of deaths [10] | Number of deaths [11] | Number of deaths [12] | Number of deaths [13] | Number of deaths [14]
One: participants with post-treatment AESI of transaminase increase (600 mg, abnormal ALT and AST levels) | participants with PCSAs of elevated glucose levels considered as a TEAE of hyperglycemia (600 mg, from an abnormal baseline)
0.04: Cumulative incidence rate of deaths [6] | Cumulative incidence rate of deaths [7] | Cumulative incidence rate of deaths [8] | Cumulative incidence rate of deaths [9] | Cumulative incidence rate of deaths [10] | Cumulative incidence rate of deaths [11] | Cumulative incidence rate of deaths [12] | Cumulative incidence rate of deaths [13] | Cumulative incidence rate of deaths [14]
5 TEAEs: number of TEAEs leading to treatment discontinuation [3]
6 AESIs: number of AESIs [3]
(2.1) %: TEAE, PT Pulmonary embolism: percentage of participants [1] | TEAE, PT Pyrexia: percentage of participants [1] | TEAE, PT Respiratory disorder: percentage of participants [1] | TEAE, PT Venous thrombosis limb: percentage of participants [1] | TEAE, PT Vessel puncture site phlebitis: percentage of participants [1] | TEAE, SOC BLOOD AND LYMPHATIC SYSTEM DISORDERS: percentage of participants [1] | TEAE, SOC IMMUNE SYSTEM DISORDERS: percentage of participants [1] | TEAE, SOC INJURY, POISONING AND PROCEDURAL COMPLICATIONS: percentage of participants [1] | TEAE, SOC MUSCULOSKELETAL AND CONNECTIVE TISSUE DISORDERS: percentage of participants [1] | TEAE, SOC PSYCHIATRIC DISORDERS: percentage of participants [1]
1 participant: participants with post-treatment AE leading to death [3]
